For data set [1], the target named is T1, ATP-dependent translocase ABCB1 (Homo sapiens, UniProt P08183). As to the kind of experiment: Inhibition of P-glycoprotein (unknown origin) expressed in MDCK cells assessed as reduction of calcein-AM transport after 30 mins by fluorescence assay. The format is cell-based.
Data set [2] concerns the target T1, ATP-dependent translocase ABCB1. Nature of the data set: Activation of ATPase activity of MDR1 (unknown origin) expressed in MDCK cells assessed as reduction of reduction of ATP level at 100 uM after 2 hrs by luminescence/ATPlite assay. The format is cell-based. More on the design: scale not given: the % may be the effect or the level left. Background: ATP-based viability assays read luminescence as a measure of living cells.

Data set [3] is described as follows: Efflux ratio of permeability from basolateral to apical side over apical to basolateral side in human Caco2 cells at 100 uM after 30 mins by UV spectroscopy. In kind it is ADME, cell-based. Particulars: Caco-2; call rule not given here. In general terms: Caco-2 monolayers are a common model of the intestinal barrier.
The target in data set [4] is Multidrug resistance-associated protein 1 (Homo sapiens, UniProt P33527). As to the kind of experiment: Modulation of MRP1 (unknown origin) expressed in MDCK cells at 100 uM. The format is cell-based.
The subject of the next data set is MDCK. As to the kind of experiment: Cytotoxicity against MDR1 expressing MDCK cells assessed as cell viability at 1 uM after 24 hrs by MTT assay. Particulars: dog. The format is ADME, cell-based, Canis lupus familiaris. Background: Tetrazolium dyes change colour on reduction, which living cells bring about.
Data set [5] is described as follows: Cytotoxicity against MDR1 expressing MDCK cells assessed as cell viability at 1 uM after 48 hrs by MTT assay. In kind it is ADME, cell-based, Canis lupus familiaris. The following applies: dog, read-out: Activity.
Data set [6] can be described thus: Cytotoxicity against MDR1 expressing MDCK cells assessed as cell viability at 1 uM after 48 hrs by MTT assay in presence of MC18 P-gp inhibitor. In kind it is ADME, cell-based, Canis lupus familiaris. The following applies: dog, with MC18 (P-gp inhibitor), concentration not stated, read-out: Activity.

T1 sequence (P08183 whole entry): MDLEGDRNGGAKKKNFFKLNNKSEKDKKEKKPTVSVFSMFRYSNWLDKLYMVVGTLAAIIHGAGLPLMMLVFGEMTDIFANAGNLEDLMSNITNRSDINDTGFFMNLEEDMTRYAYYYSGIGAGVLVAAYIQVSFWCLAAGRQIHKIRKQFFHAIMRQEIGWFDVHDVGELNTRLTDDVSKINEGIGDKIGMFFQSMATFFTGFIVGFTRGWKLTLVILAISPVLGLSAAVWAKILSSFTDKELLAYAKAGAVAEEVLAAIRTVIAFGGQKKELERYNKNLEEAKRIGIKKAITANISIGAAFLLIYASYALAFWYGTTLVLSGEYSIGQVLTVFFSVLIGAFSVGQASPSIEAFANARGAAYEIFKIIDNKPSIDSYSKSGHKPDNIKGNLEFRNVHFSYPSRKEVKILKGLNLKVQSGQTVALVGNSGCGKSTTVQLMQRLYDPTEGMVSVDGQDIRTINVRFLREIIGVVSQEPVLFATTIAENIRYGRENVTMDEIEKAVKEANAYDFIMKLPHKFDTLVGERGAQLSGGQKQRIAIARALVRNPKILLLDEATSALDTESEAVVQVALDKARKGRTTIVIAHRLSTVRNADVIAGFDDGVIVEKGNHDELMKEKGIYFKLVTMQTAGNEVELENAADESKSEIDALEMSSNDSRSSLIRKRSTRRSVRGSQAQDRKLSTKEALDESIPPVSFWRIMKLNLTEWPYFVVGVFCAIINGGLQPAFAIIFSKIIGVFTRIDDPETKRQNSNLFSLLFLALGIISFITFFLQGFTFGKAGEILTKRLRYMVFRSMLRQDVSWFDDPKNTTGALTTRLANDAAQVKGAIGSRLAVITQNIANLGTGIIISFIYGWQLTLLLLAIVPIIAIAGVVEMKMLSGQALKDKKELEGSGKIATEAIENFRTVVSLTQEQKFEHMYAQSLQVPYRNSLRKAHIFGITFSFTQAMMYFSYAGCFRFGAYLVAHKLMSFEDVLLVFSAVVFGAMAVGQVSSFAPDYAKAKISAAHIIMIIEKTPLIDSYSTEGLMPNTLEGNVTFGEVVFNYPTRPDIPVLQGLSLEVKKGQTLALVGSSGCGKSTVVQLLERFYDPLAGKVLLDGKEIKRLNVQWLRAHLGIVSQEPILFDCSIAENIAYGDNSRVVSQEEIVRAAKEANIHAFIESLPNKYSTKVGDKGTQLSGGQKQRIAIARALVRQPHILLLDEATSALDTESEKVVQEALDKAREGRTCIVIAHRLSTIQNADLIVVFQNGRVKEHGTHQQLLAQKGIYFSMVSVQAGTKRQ
Multidrug resistance-associated protein 1, sequence (P33527 whole entry): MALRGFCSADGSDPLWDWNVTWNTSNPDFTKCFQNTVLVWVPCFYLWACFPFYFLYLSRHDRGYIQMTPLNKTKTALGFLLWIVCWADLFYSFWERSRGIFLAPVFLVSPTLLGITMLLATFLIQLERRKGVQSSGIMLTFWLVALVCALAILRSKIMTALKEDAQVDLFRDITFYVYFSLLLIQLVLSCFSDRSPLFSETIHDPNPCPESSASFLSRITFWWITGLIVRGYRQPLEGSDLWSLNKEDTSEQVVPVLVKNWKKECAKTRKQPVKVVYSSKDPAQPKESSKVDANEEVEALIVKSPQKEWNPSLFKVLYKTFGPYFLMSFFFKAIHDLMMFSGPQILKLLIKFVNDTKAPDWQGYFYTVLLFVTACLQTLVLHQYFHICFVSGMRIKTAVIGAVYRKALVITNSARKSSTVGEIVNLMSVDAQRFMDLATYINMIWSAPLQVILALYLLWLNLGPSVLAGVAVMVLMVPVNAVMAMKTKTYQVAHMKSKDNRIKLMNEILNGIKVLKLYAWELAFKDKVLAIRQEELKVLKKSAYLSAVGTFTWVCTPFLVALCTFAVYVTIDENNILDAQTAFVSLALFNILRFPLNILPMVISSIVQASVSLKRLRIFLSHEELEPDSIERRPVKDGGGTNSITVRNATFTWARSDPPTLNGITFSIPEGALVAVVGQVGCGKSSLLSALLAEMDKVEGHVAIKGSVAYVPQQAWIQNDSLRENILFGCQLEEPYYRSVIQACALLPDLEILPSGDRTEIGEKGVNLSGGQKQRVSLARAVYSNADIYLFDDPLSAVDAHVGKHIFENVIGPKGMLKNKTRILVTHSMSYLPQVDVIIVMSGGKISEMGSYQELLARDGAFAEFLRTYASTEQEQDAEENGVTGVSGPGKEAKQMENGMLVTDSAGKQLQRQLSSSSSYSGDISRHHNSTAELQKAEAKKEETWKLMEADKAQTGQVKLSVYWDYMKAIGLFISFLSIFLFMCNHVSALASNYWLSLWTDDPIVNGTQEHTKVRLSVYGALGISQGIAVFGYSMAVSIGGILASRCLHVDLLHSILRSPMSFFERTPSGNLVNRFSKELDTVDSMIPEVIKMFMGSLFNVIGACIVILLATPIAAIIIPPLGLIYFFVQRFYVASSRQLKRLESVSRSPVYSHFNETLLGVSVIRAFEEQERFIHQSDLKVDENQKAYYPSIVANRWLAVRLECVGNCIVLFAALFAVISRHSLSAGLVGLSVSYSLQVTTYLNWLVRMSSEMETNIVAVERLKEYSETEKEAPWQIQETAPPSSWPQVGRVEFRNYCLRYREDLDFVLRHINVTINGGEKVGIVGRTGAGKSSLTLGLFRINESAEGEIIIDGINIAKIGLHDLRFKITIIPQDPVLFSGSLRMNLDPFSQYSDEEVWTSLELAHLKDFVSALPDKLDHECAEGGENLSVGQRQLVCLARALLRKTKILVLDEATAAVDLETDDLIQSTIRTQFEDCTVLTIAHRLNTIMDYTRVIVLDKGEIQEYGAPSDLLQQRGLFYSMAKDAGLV

As a reminder, the EC50 is the concentration giving half of the maximal effect. What is called efflux ratio is a quotient of directional permeabilities that is used to spot active efflux. Consider `COc1cccc(CCc2ccccc2OCc2cc(OC)c(OC)c(OC)c2)c1OC`, for which the EC50 in data set [1] was 0.3 µM. Also, the Activity result in data set [2] was “Active”; in data set [4], “Not Active”. Besides, the efflux ratio at 0.5 h, 100 µM in data set [3] stood at 3.23.
For `COc1cccc(CCc2ccccc2OCc2cc(OC)c(OC)c(OC)c2)c1`, in that order: 3.1 µM, “Not Active”, “Not Active” and 3.14.
For `COc1ccc(CCc2ccccc2OCc2ccc(OC)c(OC)c2)cc1OC`, in that order: 2.1 µM, “Not Active”, “Not Active” and 2.77.
For `COc1cccc(COc2ccccc2CCc2cc(OC)c(OC)c(OC)c2)c1OC`, in that order: 3.2 µM, “Active”, “Not Active” and 3.45.
As for `COc1ccc(COc2ccccc2CCc2cc(OC)c(OC)c(OC)c2)cc1OC`, the EC50 in data set [1] was 0.9 µM. For the same compound, the results for the Activity result in data set [2] and in data set [4] were “Active” and “Not Active”, respectively. In data set [3], the efflux ratio at 0.5 h, 100 µM is 3.8.
Turning to `COc1cc(CCc2ccccc2OCc2cc(OC)c(OC)c(OC)c2)cc(OC)c1OC`, the EC50 in data set [1] is 0.0071 µM. Further, the values for the Activity entry (in data set [2]; in the data set with MDCK; in data set [4]) were “Active”, “Non-toxic” and “Not Active”, respectively. Moreover, in data set [3], the efflux ratio at 0.5 h, 100 µM was determined as 3.96. The viability at 48 h, 1 µM in data set [5] was found to be 40%; in data set [6], 63%.
In the case of `COc1cc(COc2ccccc2CCc2cc(OC)c(OC)c(OC)c2)cc(OC)c1`, in data set [1], the EC50 is 1.3 µM. Also, the Activity result in data set [2] and in data set [4] was “Not Active” each time.
As for `COc1cccc(CCc2ccccc2OCc2ncccn2)c1`, the EC50 in data set [1] was 32.5 µM. In addition, the values for the Activity result in data set [2] and in data set [4] were “Active” and “Not Active”, respectively. The efflux ratio at 0.5 h, 100 µM in data set [3] came out at 2.91.
For `Clc1ccc(COc2ccccc2CCc2ccccc2)c(Cl)c1`, the EC50 in data set [1] was more than 100 µM. For the same compound, the Activity result in data set [4] is “Not Active”.
For `COc1cccc(CCc2ccccc2OCc2ccc3c(c2)OCO3)c1`, in data set [1], the EC50 is more than 100 µM. For the same compound, the Activity result in data set [2] was “Active”; in data set [4], “Not Active”.
For `COc1cccc(CCc2ccccc2OCc2cccs2)c1`, in that order: more than 100 µM, “Active” and “Not Active”.
As for `COc1cccc(CCc2ccccc2NCc2ccncc2)c1`, the EC50 in data set [1] was 11.5 µM. The Activity entry was “Active” in data set [2] and “Not Active” in data set [4]. Further, the efflux ratio at 0.5 h, 100 µM in data set [3] came to 3.
As to `COc1cccc(CCc2ccccc2NC(=O)c2cccc(OC)c2)c1`, the EC50 in data set [1] was 10.9 µM. The Activity entry in data set [2] is reported as “Active”; in data set [4], “Not Active”. In data set [3], the efflux ratio at 0.5 h, 100 µM was 4.1.
For `COc1cccc(CCc2ccccc2NC(=O)c2cccnc2)c1`, the EC50 in data set [1] was 43.7 µM. Moreover, the Activity result was “Active” in data set [2] and “Not Active” in data set [4].
Regarding `COc1cc2c(cc1OC)CN(CCc1ccc(NC(=O)c3cc(OC)c(OC)cc3NC(=O)c3cnc4ccccc4c3)cc1)CC2` [TARIQUIDAR], the Activity in data set [2] is recorded as 30%. The efflux ratio at 0.5 h, 100 µM in data set [3] is 22.

The values are drawn from ChEMBL document CHEMBL3232943, “SAR study on arylmethyloxyphenyl scaffold: looking for a P-gp nanomolar affinity” (Eur J Med Chem, 2014).
